# Where two headings read alike, the source gives them in different places.
# Tests used:
# hPSC-NSCs [1] = assay: Dopamine ELISA of conditioned medium (dopamine release); format: cell-based, human
# Description: To obtain DA neurons, hPSC-NSC were first primed into DA precursors with 100 ng/mL FGF8 and 2 μM Purmorphamine for 7 days and then used to screen for small molecules that induce terminal dopaminergic differentiation (FIG. 6A). The DA precursors were plated at 2000 cells/well of a 96-well plate and treated with a small molecule library (Tocris 1120 biologically active compounds) at 2.5 μM for two weeks (FIG. 6A). Dopaminergic differentiation was assessed by neurite outgrowth and ELISA analysis for dopamine release (FIG. 6A). From this screen, guggulsterone (GS), a naturally occurring steroid, was identified among the best inducers of dopaminergic differentiation (FIG. 6A). After 30 days of differentiation, GS-treated neurons appeared mature with elaborate neurite extensions. […] Spontaneous action potentials were recorded in whole cultures of GS-treated neurons using a microelectrode array (MEA) system (FIG. 6J). […]
# Conditioned medium from the top neurite inducers (Table 1) (wells containing the highest density of neurites compare to control 0.1% DMSO treated) were collected and analyzed using a dopamine ELISA assay (Cosmo Bio). […] Supernatant was then collected and analyzed for quantitative determination of dopamine using a commercial dopamine ELISA assay kit (CusaCosmo Bio). Data analysis was performed using the microtiter plate reader (BIO-TEK Synergy 2). […]
# hPSC-NSCs [2] = assay: RT-PCR expression of dopamine neuron genes in hPSC-NSCs treated with small molecule hits; format: cell-based, human; conditions: Homo sapiens, Neuron, 336 h, hPSC-NSCs primed 7 days with Purmorphamine and FGF8, small molecule 2.5 μM for two weeks
# In short: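 hPSC-NSCs pre-patterned 7 days with Purmorphamine (2 μM) plus FGF8 (100 ng/mL) in NB medium, then treated with compounds at 2.5 μM final for two weeks. Total RNA reverse-transcribed; SYBR Green qPCR for dopaminergic/neuronal markers, relative quantification against a standard curve, normalized to PPIG; mean±s.e.m.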
smiles,measurement,setting,value
C/C=C1\C(=O)C[C@H]2[C@@H]3CCC4=CC(=O)CC[C@]4(C)[C@H]3CC[C@]12C [Guggulsterone],increase in dopamine secretion compared to control cells (ELISA),"hPSC-NSCs [1]; control: NSCs 1 week FGF8 and purmorphamine, 2 weeks 0.1% DMSO instead of GS",five-fold increase
same,levels of Dopamine spontaneous release,"hPSC-NSCs [1]; treated hPSC-NSCs, compared among top hits",highest levels
same,fold induction at 2.5 µM,hPSC-NSCs [2]; read-out: DDC (AADC) expression by RT-PCR,9.82
same,fold induction at 2.5 µM,hPSC-NSCs [2]; read-out: EN1 expression by RT-PCR,10
same,fold induction at 2.5 µM,hPSC-NSCs [2]; read-out: KCNJ6 expression by RT-PCR,0.01
same,fold induction at 2.5 µM,hPSC-NSCs [2]; read-out: LMX1B expression by RT-PCR,6.45
same,fold induction at 2.5 µM,hPSC-NSCs [2]; read-out: MAP2 expression by RT-PCR,9.05
same,fold induction at 2.5 µM,hPSC-NSCs [2]; read-out: NR4A2 (NURR1) expression by RT-PCR,0.53
same,fold induction at 2.5 µM,hPSC-NSCs [2]; read-out: PITX3 expression by RT-PCR,0.48
same,fold induction at 2.5 µM,hPSC-NSCs [2]; read-out: Pax2 expression by RT-PCR,0.03
same,fold induction at 2.5 µM,hPSC-NSCs [2]; read-out: SLC6A3 (DAT) expression by RT-PCR,1.03
same,fold induction at 2.5 µM,hPSC-NSCs [2]; read-out: TH1 expression by RT-PCR,10.6
same,fold induction at 2.5 µM,hPSC-NSCs [2]; read-out: Tubb3 expression by RT-PCR,6.83
